According to patent US7037939B2, “Compound and derivative of gabapentin” (Industrial Technology Research Institue, priority 2002, dated 2006):

What was measured:
Caco-2 cell = experiment: Caco-2 monolayer cell transmission rate (in vitro intestinal absorption model); format: in vitro ADME, human
Source text: The common use of the activity selection model for the in vitro intestinal absorption comprises: (1) Carcinoms (Caco-2); (2) Using Chamber; (3) Everted Gut Sac. Basically, there is no difference for those three drug-activity-selection models when they are used for evaluating the activity selection. However, in terms of the cell source from human, a cell line is predominant. Moreover, with the cellular metabolism being similar to human intestines, Caco-2 becomes an excellent tool in the study of intestine absorption. Therefore, in the comparison of the in vitro transmission rate between gabapentin and gabapentin derivatives, the Caco-2 system is still the favorable model.
The research for studying gabapentin and the derivatives thereof in the present invention includes: Caco-2 cell activation, Caco-2 monolayer cell cultivation, resistance value measurement, effect of time to gabapentin transmission rate, and comparison of transmission rate between gabapentin and gabapentin derivatives. In constructing the Caco-2 monolayer, the original cell line is the human colon adenocarcinoma cell (Caco-2), and its data sheet is listed as Table 2.
The Caco-2 cell is activated appropriately, and seeded in the transwell at 37° C. in an amount of about 1×10^5. The aliquot is cultivated in 5% CO2 at 37° C. and replaced with a fresh medium every 3 to 4 days, and then the monolayer cell is obtained by the 21 days cultivation. The integrity of the Caco-2 cell is further characterized by tissue section and resistance value measurement.
HPLC Analysis: Intersil ODS-3V 250*4.6 mm column, Solvent: MeOH/H2O=10:90 to 70:30 with 0.1% of NH4OAc, Flow rate=1.0 ml/min, ELSD: Evaporative Light Scattering Detector. Every derivative has been repeated for 3 times in analysis, 4 hr later, the sample is analyzed for the transmission rate and then averaged to account its transmission fold.

[1] = Oral drug absorption test in rats: gabapentin concentration in blood/serum by LC/MS/MS; format: in vivo, rat; settings: 300 mg/kg, ratio of AUC to Gabapentin HCl
Procedure: Rats (3 male, Winstar rats) are fed with 300 mg/kg dosage of compounds. Plural blood samples are collected at different times (0, 0.5, 1, 2, 3, 8, 12, 24 hrs). The blood samples are centrifuged, and the concentration of gabapentin in the serum are analyzed with LC/MS/MS (MRM method, limitation of instruments 0.005 μg/mL).
After reducing the dosage, compounds of gabapentin prodrugs were selected for further pharmacodynamic analysis. The rats are fed with 50 mg/kg dosage of gabapentin equivalency individually.

[2] = Caco-2 monolayer, 4 h, mean of 3 repeats, HPLC-ELSD
[3] = ratio of Caco-2 transmission rate to GBP.HCl, 4 h

With `CCOC(=O)CC1(CNC(=O)CC2(CN)CCCCC2)CCCCC1` [Embodiment 2, (1-{[2-(1-Aminomethyl-cyclohexyl)-acetylamino]-methyl}-cyclohexyl)-acetic acid ethyl ester] the “Caco-2 Cell Mean Total Transmission rate 4 h (%)” value (Caco-2 cell; human, Caco-2, 4 h) was 10.25%, the “gbp-prodrug/gbp Transmission Fold” value (Caco-2 cell; human, Caco-2, 4 h) was 9.3 Fold and the “AUC value relative to Gabapentin HCl” value [1] was 14.9 times.

With `CCOC(=O)CC1(CNC(=O)c2cccnc2)CCCCC1` [Embodiment 27, (1-{[(Pyridine-3-carbonyl)-amino]-methyl}-cyclohexyl)-acetic acid ethyl ester] the “Caco-2 Cell Mean Total Transmission rate 4 h (%)” value (Caco-2 cell; human, Caco-2, 4 h) was 9.39% and the “gbp-prodrug/gbp Transmission Fold” value (Caco-2 cell; human, Caco-2, 4 h) was 8.5 Fold.

In the case of `CCOC(=O)CC1(CNC(=O)C(C)N)CCCCC1` (stereo not drawn) [Embodiment 28, {1-[(2-Amino-propionylamino)-methyl]-cyclohexyl}-acetic acid ethyl ester], the “Caco-2 Cell Mean Total Transmission rate 4 h (%)” value (Caco-2 cell; human, Caco-2, 4 h) is reported as 8.11% and the “gbp-prodrug/gbp Transmission Fold” value (Caco-2 cell; human, Caco-2, 4 h) is reported as 7.4 Fold.

In the case of `CCOC(=O)CC1(CNC(=O)C(N)C(C)C)CCCCC1` (stereo not drawn) [Embodiment 29, {1-[(2-Amino-3-methyl-butyrylamino)-methyl]-cyclohexyl}-acetic acid ethyl ester], the “Caco-2 Cell Mean Total Transmission rate 4 h (%)” value (Caco-2 cell; human, Caco-2, 4 h) is reported as 8.73% and the “gbp-prodrug/gbp Transmission Fold” value (Caco-2 cell; human, Caco-2, 4 h) is reported as 7.9 Fold.

With `CCOC(=O)CC1(CNC(=O)C(N)c2ccccc2)CCCCC1` (stereo not drawn) [Embodiment 30, {1-[(2-Amino-2-phenyl-acetylamino)-methyl]-cyclohexyl}-acetic acid ethyl ester] the “Caco-2 Cell Mean Total Transmission rate 4 h (%)” value (Caco-2 cell; human, Caco-2, 4 h) was 11.87% and the “gbp-prodrug/gbp Transmission Fold” value (Caco-2 cell; human, Caco-2, 4 h) was 10.8 Fold.

With `CCOC(=O)CC1(CNC(=O)C(N)CCc2ccccc2)CCCCC1` (stereo not drawn) [Embodiment 31, {1-[(2-Amino-4-phenyl-butyrylamino)-methyl]-cyclohexyl}-acetic acid ethyl ester] the “Caco-2 Cell Mean Total Transmission rate 4 h (%)” value (Caco-2 cell; human, Caco-2, 4 h) was 12.30% and the “gbp-prodrug/gbp Transmission Fold” value (Caco-2 cell; human, Caco-2, 4 h) was 11.2 Fold.

For `CCOC(=O)CC1(CNC(=O)C(N)CCc2ccccc2)CCCCC1` (stereo not drawn) [Embodiment 32, {1-[(2-Amino-4-phenyl-butyrylamino)-methyl]-cyclohexyl}-acetic acid ethyl ester], the “Caco-2 Cell Mean Total Transmission rate 4 h (%)” value (Caco-2 cell; human, Caco-2, 4 h) was 1.76% and the “gbp-prodrug/gbp Transmission Fold” value (Caco-2 cell; human, Caco-2, 4 h) was 1.6 Fold.

With `CCOC(=O)CC1(CNC(=O)C(N)c2cc3ccccc3[nH]2)CCCCC1` (stereo not drawn) [Embodiment 33, (1-{[2-Amino-2-(1H-indol-2-yl)-acetylamino]-methyl}-cyclohexyl)-acetic acid ethyl ester] the “Caco-2 Cell Mean Total Transmission rate 4 h (%)” value (Caco-2 cell; [2]) was 9.97% and the “gbp-prodrug/gbp Transmission Fold” value (Caco-2 cell; [3]) was 9.1 Fold.

In the case of `CCOC(=O)CC1(CNC(=O)C2CSCN2)CCCCC1` (stereo not drawn) [Embodiment 34, (1-{[(Thiazolidine-4-carbonyl)-amino]-methyl}-cyclohexyl)-acetic acid ethyl ester], the “Caco-2 Cell Mean Total Transmission rate 4 h (%)” value (Caco-2 cell; human, Caco-2, 4 h) is reported as 4.50% and the “gbp-prodrug/gbp Transmission Fold” value (Caco-2 cell; human, Caco-2, 4 h) is reported as 4.1 Fold.

In the case of `CCOC(=O)CC1(CNC(=O)C(N)c2ccc(O)cc2)CCCCC1` (stereo not drawn) [Embodiment 35, (1-{[2-Amino-2-(4-hydroxy-phenyl)-acetylamino]-methyl}-cyclohexyl)-acetic acid ethyl ester], the “Caco-2 Cell Mean Total Transmission rate 4 h (%)” value (Caco-2 cell; human, Caco-2, 4 h) is reported as 10.33% and the “gbp-prodrug/gbp Transmission Fold” value (Caco-2 cell; human, Caco-2, 4 h) is reported as 9.4 Fold.

In the case of `CCOC(=O)CC1(CNC(=O)CCNC(=O)c2cccnc2)CCCCC1` [Embodiment 36, [1-({3-[(Pyridine-3-carbonyl)-amino]-propionylamino}-methyl)-cyclohexyl]-acetic acid ethyl ester], the “Caco-2 Cell Mean Total Transmission rate 4 h (%)” value (Caco-2 cell; [2]) is reported as 9.00% and the “gbp-prodrug/gbp Transmission Fold” value (Caco-2 cell; [3]) is reported as 8.2 Fold.

For `CCOC(=O)CC1(CNC(=O)C2CSCN2C(=O)OC(C)(C)C)CCCCC1` (stereo not drawn) [Embodiment 37, 4-[(1-Ethoxycarbonylmethyl-cyclohexylmethyl)-carbamoyl]-thiazolidine-3-carboxylic acid tert-butyl ester], the “Caco-2 Cell Mean Total Transmission rate 4 h (%)” value (Caco-2 cell; [2]) was 6.13% and the “gbp-prodrug/gbp Transmission Fold” value (Caco-2 cell; [3]) was 5.6 Fold.

In the case of `CCOC(=O)CC1(CNC(=O)C(NC(=O)OC(C)(C)C)c2ccc(O)cc2)CCCCC1` (stereo not drawn) [Embodiment 38, (1-{[2-tert-Butoxycarbonylamino-2-(4-hydroxy-phenyl)-acetylamino]-methyl}-cyclohexyl)-acetic acid ethyl ester], the “Caco-2 Cell Mean Total Transmission rate 4 h (%)” value (Caco-2 cell; [2]) is reported as 5.05% and the “gbp-prodrug/gbp Transmission Fold” value (Caco-2 cell; [3]) is reported as 4.6 Fold.
